In patent US6479435B1, “Diaryl ethers and processes for their preparation and herbicidal and desiccant compositions containing them” (ISK Americas Incorporated, priority 1997, dated 2002):

Tests used:
Type in all cases: in vivo
[1] = test system: upland rice (Oryza sp., var.Tebonnet, RICE); experiment: Post-emerge greenhouse test, crop damage rating; settings: 14 days after application
In short: (§1)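 Compounds in acetone with 0.25% v/v non-ionic surfactant were track-sprayed at 187 l/ha over plants at the 2-3 leaf stage, at 63 to 1000 g ai/ha. Pots were bottom-watered. Injury was scored visually 14 days later on a 0-100 scale, where 0 is no damage and 100 is complete plant death.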

[2] = test system: field corn (Zea mays L., var. Dekalb 535, CORN); experiment: Post-emerge greenhouse test, crop damage rating; settings: 14 days after application
In short: as §1

[3] = test system: common ragweed (Ambrosia artemisiifolia L., AMBEL); experiment: Post-emerge greenhouse herbicide test, phytotoxicity rating; settings: 14 days after application
In short: as §1

[4] = test system: upland rice (Oryza sp., var.Tebonnet, RICE); experiment: Pre-emerge greenhouse test, crop damage rating; settings: 14 days after application, rating scale 0-100
In short: (§2)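 Seeds sown in sandy loam mix one day before track-sprayer application of compounds in acetone at 125–1000 g ai/ha (187 l/ha), then surface-watered to incorporate and bottom-watered. Visual rating 14 days after application on a 0–100 scale (0 = no damage, 100 = all plants dead).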

[5] = test system: field corn (Zea mays L., var. Dekalb 535, CORN); experiment: Pre-emerge greenhouse test, crop damage rating; settings: 14 days after application, rating scale 0-100
In short: as §2

[6] = test system: ivyleaf morningglory (Ipomoea hederacea, IPOHE); experiment: Pre-emerge greenhouse herbicide test, phytotoxicity rating; settings: 14 days after application, rating scale 0-100
In short: as §2

[7] = test system: redroot pigweed (Amaranthus retroflexus, AMARE); experiment: as above; settings: 14 days after application, rating scale 0-100
In short: as §2

[8] = test system: Johnsongrass (Sorghum halepense, SORHA); experiment: as above; settings: 14 days after application, rating scale 0-100
In short: as §2

[9] = test system: sicklepod (Cassia obtusifolia, CASOB); experiment: as above; settings: 14 days after application, rating scale 0-100
In short: as §2

[10] = test system: barnyardgrass (Echinochloa crusgalli, ECHCG); experiment: as above; settings: 14 days after application, rating scale 0-100
In short: as §2

[11] = test system: large crabgrass (Digitaria sanguinalis, DIGSA); experiment: as above; settings: 14 days after application, rating scale 0-100
In short: as §2

[12] = test system: velvetleaf (Abutilon theophrasti, ABUTH); experiment: as above; settings: 14 days after application, rating scale 0-100
In short: as §2

[13] = test system: green foxtail (Setaria viridis, SETVI); experiment: as above; settings: 14 days after application, rating scale 0-100
In short: as §2

[14] = test system: common ragweed (Ambrosia artemisiifolia L., AMBEL); experiment: as above; settings: 14 days after application, rating scale 0-100
In short: as §2

[15] = test system: lambsquarters (Chenopodium album, CHEAL); experiment: as above; settings: 14 days after application, rating scale 0-100
In short: as §2

[16] = test system: soybean (Glycine max L., var. Pella 86, SOY); experiment: Post-emerge greenhouse test, crop damage rating; settings: 14 days after application
In short: as §1

[17] = test system: soybean (Glycine max L., var. Pella 86, SOY); experiment: Pre-emerge greenhouse test, crop damage rating; settings: 14 days after application, rating scale 0-100
In short: as §2

[18] = test system: ivyleaf morningglory (Ipomoea hederacea, IPOHE); experiment: Post-emerge greenhouse herbicide test, phytotoxicity rating; settings: 14 days after application
In short: as §1

[19] = test system: redroot pigweed (Amaranthus retroflexus, AMARE); experiment: as above; settings: 14 days after application
In short: as §1

[20] = test system: Johnsongrass (Sorghum halepense, SORHA); experiment: as above; settings: 14 days after application
In short: as §1

[21] = test system: barnyardgrass (Echinochloa crusgalli, ECHCG); experiment: as above; settings: 14 days after application
In short: as §1

[22] = test system: large crabgrass (Digitaria sanguinalis, DIGSA); experiment: as above; settings: 14 days after application
In short: as §1

[23] = test system: velvetleaf (Abutilon theophrasti, ABUTH); experiment: as above; settings: 14 days after application
In short: as §1

[24] = test system: green foxtail (Setaria viridis, SETVI); experiment: as above; settings: 14 days after application
In short: as §1

[25] = test system: lambsquarters (Chenopodium album, CHEAL); experiment: as above; settings: 14 days after application
In short: as §1

## Cn1nc(-c2cc(Oc3ncccc3[N+](=O)[O-])c(Cl)cc2F)c(Cl)c1C(F)(F)F [Compound 1-1]
[1]; 500 g al/ha
  RICE crop damage rating (0-100): 90
[2]; 500 g al/ha
  CORN crop damage rating (0-100): 60
[3]; 500 g al/ha
  AMBEL phytotoxicity rating (0-100): 100
[4]; 500 g ai/ha
  crop damage rating RICE: 20
[5]; 500 g ai/ha
  crop damage rating CORN: 20
[6]; 500 g ai/ha
  phytotoxicity rating IPOHE: 10
[7]; 500 g ai/ha
  phytotoxicity rating AMARE: 100
[8]; 500 g ai/ha
  phytotoxicity rating SORHA: 70
[9]; 500 g ai/ha
  phytotoxicity rating CASOB: 20
[10]; 500 g ai/ha
  phytotoxicity rating ECHCG: 50
[11]; 500 g ai/ha
  phytotoxicity rating DIGSA: 90
[12]; 500 g ai/ha
  phytotoxicity rating ABUTH: 60
[13]; 500 g ai/ha
  phytotoxicity rating SETVI: 100
[14]; 500 g ai/ha
  phytotoxicity rating AMBEL: 50
[15]; 500 g ai/ha
  phytotoxicity rating CHEAL: 100
[16]; 500 g al/ha
  SOY crop damage rating (0-100): 100
[17]; 500 g ai/ha
  crop damage rating SOY: 10
[18]; 500 g al/ha
  IPOHE phytotoxicity rating (0-100): 100
[19]; 500 g al/ha
  AMARE phytotoxicity rating (0-100): 100
[20]; 500 g al/ha
  SORHA phytotoxicity rating (0-100): 90
[21]; 500 g al/ha
  ECHCG phytotoxicity rating (0-100): 100
[22]; 500 g al/ha
  DIGSA phytotoxicity rating (0-100): 95
[23]; 500 g al/ha
  ABUTH phytotoxicity rating (0-100): 100
[24]; 500 g al/ha
  SETVI phytotoxicity rating (0-100): 100
[25]; 500 g al/ha
  CHEAL phytotoxicity rating (0-100): 100

## Cn1nc(-c2cc(Oc3ncccc3C(F)(F)F)c(Cl)cc2F)c(Cl)c1C(F)(F)F [Compound 1-2]
[1]; 63 g al/ha
  RICE crop damage rating (0-100): 0
[1]; 500 g al/ha
  RICE crop damage rating (0-100): 0
[2]; 63 g al/ha
  CORN crop damage rating (0-100): 0
[2]; 500 g al/ha
  CORN crop damage rating (0-100): 10
[3]; 63 g al/ha
  AMBEL phytotoxicity rating (0-100): 30
[3]; 500 g al/ha
  AMBEL phytotoxicity rating (0-100): 90
[4]; 125 g ai/ha
  crop damage rating RICE: 30
[4]; 500 g ai/ha
  crop damage rating RICE: 40
[5]; 125 g ai/ha
  crop damage rating CORN: 10
[5]; 500 g ai/ha
  crop damage rating CORN: 90
[6]; 125 g ai/ha
  phytotoxicity rating IPOHE: 0
[6]; 500 g ai/ha
  phytotoxicity rating IPOHE: 60
[7]; 125 g ai/ha
  phytotoxicity rating AMARE: 80
[7]; 500 g ai/ha
  phytotoxicity rating AMARE: 100
[8]; 125 g ai/ha
  phytotoxicity rating SORHA: 30
[8]; 500 g ai/ha
  phytotoxicity rating SORHA: 50
[9]; 125 g ai/ha
  phytotoxicity rating CASOB: 80
[9]; 500 g ai/ha
  phytotoxicity rating CASOB: 0
[10]; 125 g ai/ha
  phytotoxicity rating ECHCG: 20
[10]; 500 g ai/ha
  phytotoxicity rating ECHCG: 50
[11]; 125 g ai/ha
  phytotoxicity rating DIGSA: 40
[11]; 500 g ai/ha
  phytotoxicity rating DIGSA: 95
[12]; 125 g ai/ha
  phytotoxicity rating ABUTH: 0
[12]; 500 g ai/ha
  phytotoxicity rating ABUTH: 70
[13]; 125 g ai/ha
  phytotoxicity rating SETVI: 90
[13]; 500 g ai/ha
  phytotoxicity rating SETVI: 99
[14]; 125 g ai/ha
  phytotoxicity rating AMBEL: 80
[14]; 500 g ai/ha
  phytotoxicity rating AMBEL: 80
[15]; 125 g ai/ha
  phytotoxicity rating CHEAL: 50
[15]; 500 g ai/ha
  phytotoxicity rating CHEAL: 99
[16]; 63 g al/ha
  SOY crop damage rating (0-100): 10
[16]; 500 g al/ha
  SOY crop damage rating (0-100): 50
[17]; 125 g ai/ha
  crop damage rating SOY: 0
[17]; 500 g ai/ha
  crop damage rating SOY: 10
[18]; 63 g al/ha
  IPOHE phytotoxicity rating (0-100): 30
[18]; 500 g al/ha
  IPOHE phytotoxicity rating (0-100): 90
[19]; 63 g al/ha
  AMARE phytotoxicity rating (0-100): 80
[19]; 500 g al/ha
  AMARE phytotoxicity rating (0-100): 100
[20]; 63 g al/ha
  SORHA phytotoxicity rating (0-100): 20
[20]; 500 g al/ha
  SORHA phytotoxicity rating (0-100): 40
[21]; 63 g al/ha
  ECHCG phytotoxicity rating (0-100): 0
[21]; 500 g al/ha
  ECHCG phytotoxicity rating (0-100): 80
[22]; 63 g al/ha
  DIGSA phytotoxicity rating (0-100): 0
[22]; 500 g al/ha
  DIGSA phytotoxicity rating (0-100): 50
[23]; 63 g al/ha
  ABUTH phytotoxicity rating (0-100): 30
[23]; 500 g al/ha
  ABUTH phytotoxicity rating (0-100): 100
[24]; 63 g al/ha
  SETVI phytotoxicity rating (0-100): 0
[24]; 500 g al/ha
  SETVI phytotoxicity rating (0-100): 40
[25]; 63 g al/ha
  CHEAL phytotoxicity rating (0-100): 70
[25]; 500 g al/ha
  CHEAL phytotoxicity rating (0-100): 100
